Tests used:
[1] = system: Salmonella typhimurium TA98; test: Reverse mutation test (Ames test), TA98; format: cell-based
Experimental: (§1) In order to examine mutagenicity of Compound I-1, I-2, I-4 and I-5, reverse mutation test using Salmonella typhimurium TA98 and TA100 (hereinafter referred to as Ames test) was conducted.
(§2) The test was conducted without addition of S9mix and with addition of S9mix. Dimethylsulfoxide was used as a negative control. A positive control was 2-(2-furyl)-3-(5-nitro-2-furyl)acrylamide in case S9mix was not added, and 2-aminoanthracene in case S9mix was added.
(§3) The amount of each sample to be added to the test plate was 7 dosages (geometric ratio 4) with the maximum dose being 1250 μg/plate for Compounds I-1 and I-5, and 7 dosages (geometric ratio 3) with the maximum dose being 5000 μg/plate for Compounds I-2 and I-4. After a sample to be examined and a strain (TA98 or TA100), or a sample to be examined, S9mix and the strain were mixed together, the mixture was multilayered using soft agar on a medium of a test plate, and then incubated at 37° C. for 48 hours.

[2] = system: Salmonella typhimurium TA98 and TA100; test: Reverse mutation test (Ames test), overall judgment; format: cell-based; details: TA98 and TA100, with and without S9mix
Experimental: as §1, §2, §3

[3] = system: Salmonella typhimurium TA100; test: Reverse mutation test (Ames test), TA100; format: cell-based
Experimental: as §1, §2, §3

[4] = system: bone marrow cells of Crlj:CD1(ICR) male mouse; test: Micronucleus test; format: in vivo; details: for appearance frequency of MNPCE as compared to the negative control group: 24 and 48 hours after single administration
Experimental: In order to study mutagenicity (in vivo) of Compound I-4, induction of micronucleated polychromatic erythrocyte (hereinafter referred to as MNPCE) was examined using bone marrow cells of Crlj:CD1(ICR) male mouse.
0 mg/kg (negative control group), 250, 500, 1000 and 2000 mg/kg (test sample group) were set as doses for the test. Mice were sacrificed 24 and 48 hours after single oral administration, and bone marrow smear was prepared and observed. Further, a single dose of MMC at 2 mg/kg was abdominally administrated in positive control group, mice were sacrificed 24 hours after the administration, and then bone marrow smear was prepared and observed.
As statistical analysis, significance tests were conducted by Wilcoxon rank sum test for the appearance frequency of MNPCE and the ratio of polychromatic erythrocyte (hereinafter referred to as PCE) to the total red blood cell (hereinafter referred to as RBC) in each administration group concerning the test sample and positive control groups relative to the negative control group and concerning these groups relative to each other where the significance level was set to less than 5% and less than 1%, respectively.

[5] = system: Chinese Hamster fibroblast cell line (CHL/IU cell); test: Chromosome aberration test; format: cell-based; details: short-term treatment with or without S9 and 24-hour continuous treatment; 0.15-1.2 mg/mL
Experimental: In order to examine whether Compound I-4 can induce chromosome aberration, the chromosome aberration test was conducted using Chinese Hamster fibroblast cell line (CHL/IU cell) in a culture system with or without addition of S9 by short-term treatment process and in a 24-hour culture system by continuous treatment process. The addition amount of a sample to be tested was set to 1.2, 0.6, 0.3, and 0.15 mg/mL for all the respective culture systems.

[6] = Transferability into brain and clearance, Examples I-20 to I-21; format: in vivo, male Wistar rats; details: rats, intravenous injection, Table 1-7
Description: Three animals were used for Experiment I-20 and Comparative Experiment I-9, and two animals were used for Experiment I-21 at the respective time points.

[7] = Partition coefficient based on the octanol extraction method, Examples II-8 to II-9; format: physicochemical; details: octanol / 10 mmol/L phosphate buffer (pH 7.4); Table 2-4
Experimental: To 2 mL of octanol, 10 μL each of the prepared sample solutions was added, 2 mL of 10 mmol/L phosphate buffer (pH 7.4) was added, followed by stirring for 30 seconds. After the mixture was centrifuged with a low-speed centrifuge (2000 rpm×60 min.), the octanol layer and the water layer were sampled each in an amount of 1 mL, and subjected to measurement of radioactivity count with an autowell gamma system (Type: ARC-301B, manufactured by Aloka). Using the obtained radioactivity count, log Poctanol was calculated in accordance with the equation (2-2).

[8] = Transferability into brain and clearance, Examples II-10 to II-11; format: in vivo, male Wistar rats; details: rats, intravenous injection, Table 2-5
Experimental: 0.05 mL each of the prepared sample solutions was injected under thiopental anesthesia into the tail vein of the rats. The rats were sacrificed by bleeding from abdominal artery, and brains were removed and subjected to measurement of mass of brains and further subjected to measurement of radioactivity (hereinafter referred to as A in this Example) with a single channel analyzer (detector type SP-20 manufactured by OHYO KOKEN KOGYO Co., Ltd.) 2, 5, 30, and 60 minutes after the injection. Further, the radioactivity level of the rest of the whole body was measured in the same manner as above (hereinafter referred to as B in this Example). Using these measurement results, radioactive distribution per unit weight of brain (% ID/g) at the respective time points were calculated in accordance with the following formula (2-3).
Three animals were used for the experiment at the respective time points.

[9] = biological target: T1, intracerebral amyloid (aggregated Aβ1-42 injected into amygdaloid nucleus) (Homo sapiens, UniProt P05067); test: Confirmation of imaging of amyloid in brain (ex vivo autoradiogram), Examples II-12 and II-13; set-up: species or system male Wistar rat; details: brain slice 60 minutes after tail vein injection
T1 construct: Aβ1-42 (Wako) was dissolved in phosphate buffer (pH 7.4); purchased Wako
T1 sequence (P05067 672-713): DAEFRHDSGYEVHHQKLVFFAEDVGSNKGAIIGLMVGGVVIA
Experimental: (§4) The same procedures as in Example II-12 were performed except using a 10 mg/mL solution of Compound II-2 in ascorbic acid (the radioactive concentration of the sample solution was 25 MBq/mL).

[10] = system: intracerebral amyloid (aggregated Aβ1-42 injected into amygdaloid nucleus); test: as above; set-up: species or system male Wistar rat; details: for radioactive accumulation at sites other than amyloid injected sites: autoradiogram, 60 minutes after tail vein injection; for accumulation of radioactivity in amygdaloid nucleus on the side to which the physiological saline solution was injected: brain slice 60 minutes after tail vein injection
Experimental: as §4

[11] = biological target: T2, amyloid (aggregated Aβ1-42) (Homo sapiens, UniProt P05067); test: Measurement of affinity with amyloid (inhibition of [125I]3′-I-BTA-0 binding), Example II-7; details: [125I]3′-I-BTA-0 400 pmol/L, amyloid 1 μmol/L, 1% bovine serum albumin-containing phosphate buffer (pH 7.4)
T2 construct: Aβ1-42 (Wako) was dissolved in phosphate buffer (pH 7.4); purchased Wako
T2 sequence (P05067 672-713 limits assumed): as the sequence (P05067 672-713) above
Description: Then, each sample solution was filtered through a glass fiber filter (trade name: Mulutiscreen™-FC, manufactured by Millipore), to separate the [^125I]3′-I-BTA-0 attached to amyloid from the free [^125I]3′-I-BTA-0.
The measured radioactivity level was defined as the background radioactivity level, and used in the calculation of the inhibition ratio (hereinafter referred to as BG).
A graph in which values converted by probit transformation from the obtained inhibition ratios were plotted relative to logarithms of concentrations of compounds for evaluation was prepared to obtain an approximate straight line by the least square method.

[12] = International Publication WO03/106439 pamphlet; cited from earlier work
[13] = normal mice, [125I]-labeled, cited from earlier work; for transfer into brain: 2 minutes after administration

FCCCOc1ccc(-c2cn3cc(Br)ccc3n2)cc1 [Compound I-1, 6-bromo-2-[4′-(3″-fluoropropoxy)phenyl]imidazo[1,2-a]pyridine]
Mutagenicity, TA98 ([1]; With addition of S9mix): Negative
Mutagenicity, TA98 ([1]; Without addition of S9mix): Negative
judgment in the Ames test [2]: negative
Mutagenicity, TA100 ([3]; With addition of S9mix): Negative
Mutagenicity, TA100 ([3]; Without addition of S9mix): Negative

FCCCOc1ccc(-c2cn3cc(I)ccc3n2)cc1 [Compound I-2, 2-[4′-(3″-fluoropropoxy)phenyl]-6-iodoimidazo[1,2-a]pyridine]
Mutagenicity, TA98 ([1]; With addition of S9mix): Negative
Mutagenicity, TA98 ([1]; Without addition of S9mix): Negative
judgment in the Ames test [2]: negative
Mutagenicity, TA100 ([3]; With addition of S9mix): Negative
Mutagenicity, TA100 ([3]; Without addition of S9mix): Negative

FCCOc1ccc(-c2cn3cc(I)ccc3n2)cc1 [Compound I-4, 2-[4′-(2″-fluoroethoxy)phenyl]-6-iodoimidazo[1,2-a]pyridine]
Mutagenicity, TA98 ([1]; With addition of S9mix): Negative
Mutagenicity, TA98 ([1]; Without addition of S9mix): Negative
judgment in the Ames test [2]: negative
Mutagenicity, TA100 ([3]; With addition of S9mix): Negative
Mutagenicity, TA100 ([3]; Without addition of S9mix): Negative
appearance frequency of MNPCE as compared to the negative control group ([4]; mouse bone marrow): no statistically significant difference
ratio of PCE to RBC as compared to the negative control group ([4]; mouse bone marrow, 24 and 48 hours after single oral administration, 250-2000 mg/kg): no statistically significant difference
mutagenicity (in vivo) judgment ([4]; single oral administration, 250-2000 mg/kg): negative
appearance frequency of cells having structural aberration or numerical aberration (diploid) [5]: comparable to that of the negative control group
capability of inducing chromosome aberration (judgment) [5]: negative

FCCCOc1ccc(-c2cn3cc(I)cnc3n2)cc1 [Compound I-5, 2-[4′-(3″-fluoropropoxy)phenyl]-6-iodoimidazo[1,2-a]pyrimidine]
Mutagenicity, TA98 ([1]; With addition of S9mix): Negative
Mutagenicity, TA98 ([1]; Without addition of S9mix): Negative
judgment in the Ames test [2]: negative
Mutagenicity, TA100 ([3]; With addition of S9mix): Negative
Mutagenicity, TA100 ([3]; Without addition of S9mix): Negative

[18F]CCCOc1ccc(-c2cn3cc(Br)ccc3n2)cc1 [Compound I-8, 6-bromo-2-[4′-(3″-[^18F]fluoropropoxy)phenyl]imidazo[1,2-a]pyridine]
Radioactive distribution in brain per unit weight, After 2 min. ([6]; 2 min.): 1.20 % ID/g
Radioactive distribution in brain per unit weight, After 5 min. ([6]; 5 min.): 0.75 % ID/g
Radioactive distribution in brain per unit weight, After 30 min. ([6]; 30 min.): 0.18 % ID/g
Radioactive distribution in brain per unit weight, After 60 min. ([6]; 60 min.): 0.12 % ID/g

OCCOc1ccc(-c2cn3cc([123I])ccc3n2)cc1 [Compound II-1, 2-[4′-(2″-hydroxyethoxy)phenyl]-6-[^123I]iodoimidazo[1,2-a]pyridine]
logPoctanol value [7]: 1.8
Radioactive distribution in brain per unit weight, After 2 min. [8]: 0.90 % ID/g
Radioactive distribution in brain per unit weight, After 5 min. [8]: 0.52 % ID/g
Radioactive distribution in brain per unit weight, After 30 min. [8]: 0.06 % ID/g
Radioactive distribution in brain per unit weight, After 60 min. [8]: 0.01 % ID/g
accumulation of radioactivity in amygdaloid nucleus on the side to which the amyloid suspension was injected [9]: marked accumulation of radioactivity
radioactive accumulation at sites other than amyloid injected sites [10]: little radioactive accumulation at the sites other than amyloid injected sites
accumulation of radioactivity in amygdaloid nucleus on the side to which the physiological saline solution was injected [10]: no significant accumulation of radioactivity

CCOc1ccc(-c2cn3cc([123I])ccc3n2)cc1 [Compound II-2, 2-(4′-ethoxyphenyl)-6-[^123I]iodoimidazo[1,2-a]pyridine]
logPoctanol value [7]: 2.1
Radioactive distribution in brain per unit weight, After 2 min. [8]: 0.89 % ID/g
Radioactive distribution in brain per unit weight, After 5 min. [8]: 0.66 % ID/g
Radioactive distribution in brain per unit weight, After 30 min. [8]: 0.13 % ID/g
Radioactive distribution in brain per unit weight, After 60 min. [8]: 0.04 % ID/g
accumulation of radioactivity in amygdaloid nucleus on the side to which the amyloid suspension was injected [9]: marked accumulation of radioactivity
radioactive accumulation at sites other than amyloid injected sites [10]: some radioactive accumulation in sites other than amyloid injected sites, but the accumulation was highly suppressed as compared to ^123I-IMPY
accumulation of radioactivity in amygdaloid nucleus on the side to which the physiological saline solution was injected [10]: no significant accumulation of radioactivity

OCCOc1ccc(-c2cn3cc(I)ccc3n2)cc1 [Compound II-3, 2-[4′-(2″-hydroxyethoxy)phenyl]-6-iodoimidazo[1,2-a]pyridine]
IC50 [11]: < 100 nM

Nc1c(/N=N/c2ccc(-c3ccc(/N=N/c4cc(S(=O)(=O)O)c5ccccc5c4N)cc3)cc2)cc(S(=O)(=O)O)c2ccccc12 [Congo Red, reference compound]
IC50 [11]: > 1000 nM

CC(=C(C#N)C#N)c1ccc2cc(N(C)CCF)ccc2c1 [FDDNP, 2-(1-{6-[(2-fluoroethyl)(methyl)amino]-2-naphthyl}ethylidene)malononitrile]
reverse mutation test result [12]: positive

CN(C)c1ccc(-c2nc3ccc(I)cc3o2)cc1 [IBOX, 6-iodo-2-[4′-(N,N-dimethylamino)phenyl]benzoxazole]
transfer into brain [13]: transferred into brain
clearance from normal tissues [13]: insufficient in clearance from normal tissues

CO[C@@]12[C@H](COC(N)=O)C3=C(C(=O)C(C)=C(N)C3=O)N1C[C@@H]1N[C@@H]12 [MMC, reference compound]
appearance frequency of MNPCE as compared to the negative control group ([4]; mouse bone marrow): significant increase

CN(C)c1ccc(-c2nc3ccc(I)cc3s2)cc1 [TZDM, 6-iodo-2-[4′-(N,N-dimethylamino)phenyl]benzothiazole]
transfer into brain [13]: transferred into brain
clearance from normal tissues [13]: insufficient in clearance from normal tissues

CN(C)c1ccc(/C=C/c2ccc(I)cc2)cc1 [m-I-SB, (E)-4-dimethylamino-4′-iodostilbene]
transfer into brain [13]: transferred into brain
clearance from normal tissues [13]: insufficient in clearance from normal tissues

Reference: patent publication US8506930B2, “Compounds having affinity for amyloid” (Nihon Medi-Physics Co., Ltd., priority 2006, dated 2013)
